Two molecules from patent US20130012548A1, “DEUTERIUM-SUBSTITUTED OMEGA-DIPHENYLUREA AND DERIVATIVES THEREOF AND PHARMACEUTICAL COMPOSITIONS COMPRISING THE COMPOUNDS” (SUZHOU ZELGEN BIOPHARMACEUTICAL CO., LTD., priority 2010, published 2013) can be followed below.

Data set [1] can be described thus: Pharmacokinetic evaluation in rats. The class given is in vivo. The conditions noted are these: Sprague-Dawley, rat, serum, male SD rats, single oral dose 3 mg/kg, in 30% PEG400; for CL/F: read-out: apparent clearance (converted); for AUC(0-inf): read-out: area under the curve (AUC0-∞); for half-life: read-out: half-life (T1/2) (converted). The protocol: 8 male Sprague-Dawley rats (7-8 weeks old and body weight about 210 g) were divided into two groups, 4 in each group (rat No.: control group was 13-16; experimental group was 9-12), and orally administrated a single dose at 3 mg/kg of either compound: (a) the undeuterated N-(4-chloro-3-(trifluoromethyl)phenyl)-N′-(4-(2-(N-methyl-aminoformyl)-4-pyridyloxy)phenyl)urea (control compound CM4306) or (b) N-(4-chloro-3-(trifluoromethyl)phenyl)-N′-(4-(2-(N-(methyl-d3)-aminoformyl)-4-pyridyloxy)phenyl)urea (Compound CM4307 of the invention) prepared in Example 1. The pharmacokinetics differences were compared.
The rats were fed with the standard feed, given water and chlordiazepoxide. Chlordiazepoxide was stopped at the last night before experiment, and given again two hours after the administration of the compound. The rats were fasted for 16 hours before the test. The compound was dissolved in 30% PEG400. The time for collecting orbital blood was 0.083, 0.25, 0.5, 1, 2, 4, 6, 8 and 24 hours after administrating the compounds.
The rats were anaesthetized briefly by inhaling ether. A 300 μL orbital blood sample was collected into the tubes containing a 30 μl 1% heparin saline solution. The tubes were dried overnight at 60° C. before being used. After the blood samples were sequentially collected, the rats were anaesthetized by ether and sacrificed.
After the blood samples were collected, the tubes were gently reversed at least five times immediately to mix the contents sufficiently, and placed on the ice. The blood samples were centrifuged at 4° C. at 5000 rpm for 5 minutes to separate the serum and red blood cells. 100 μL serum was removed to a clean plastic centrifugal tube by pipettor, and the name of the compound and time point were labeled on the tube. Serum was stored at −80° C. before LC-MS analysis.

For data set [2], the system named is Human Hepatocellular Carcinoma SMMC-7721. Briefly: Inhibition of tumor growth of SMMC-7721 in nude mice xenograft model. The class given is in vivo, Balb/c nu/nu nude mice. The conditions noted are these: 100 mg/kg po qd × 2 weeks. The protocol:
70 Balb/c nu/nu nude mice, 6 weeks old, female, were bought from Shanghai Experimental Animal Resource Center (Shanghai B&K Universal Group Limited).
SMMC-7721 cells were commercially available from Shanghai Institutes for Biological Science, CAS (Shanghai, China).
The establishment of tumor nude mice xenograft model: SMMC-7721 cells in logarithmic growth period were cultured. After cell number was counted, the cells were suspended in 1×PBS, and the number of the cell in suspension was adjusted to 1.5×10^7/ml. The tumor cells were inoculated under the skin of right armpit of nude mice with a 1 ml syringe, 3×10^6/0.2 ml/mice. 70 nude mice were inoculated in total.
When the tumor size reached 30-130 mm^3, 58 mice were divided randomly into different groups. […]
Animal body weight and tumor size were tested twice a week during the experiment. Clinical symptoms were recorded every day. At the end of the administration, the tumor size was recorded by taking pictures. […]
The formula for calculating the tumor volume (TV) is: TV=a×b^2/2, wherein a, b independently represent the length and the breadth of the tumor. The formula for calculating the relative tumor volume (RTV) is: RTV=Vt/V0, wherein V0 is the tumor volume at the beginning of the administration, and Vt is the tumor […] when measured. […]

Take `CNC(=O)c1cc(Oc2ccc(NC(=O)Nc3ccc(Cl)c(C(F)(F)F)c3)cc2)ccn1` [CM4306, N-(4-chloro-3-(trifluoromethyl)phenyl)-N′-(4-(2-(N-methylaminoformyl)-4-pyridyloxy)phenyl)urea, reference compound]: in data set [1], the CL/F is 6.83 mL/min/kg, the AUC(0-inf) amounted to 7330 ± 336 ng·h/mL and the half-life is 8.6 ± 1.4 h.

For `[2H]C([2H])([2H])NC(=O)c1cc(Oc2ccc(NC(=O)Nc3ccc(Cl)c(C(F)(F)F)c3)cc2)ccn1` [CM4307, N-(4-chloro-3-(trifluoromethyl)phenyl)-N′-(4-(2-(N-(methyl-d3)aminoformyl)-4-pyridyloxy)phenyl)urea], in data set [1], the CL/F is 4.58 mL/min/kg, the AUC(0-inf) came to 11300 ± 2470 ng·h/mL and the half-life is 11.3 ± 2.1 h. Moreover, in data set [2], the “increase of relative value of tumor inhibition compared with CM4306 (32.2%/19.6%−1)” value is given as “about 60%”.
